Results from patent US20250032524A1, “BROAD SPECTRUM AMINOGLYCOSIDES AND USES THEREOF” (REVAGENIX, INC., priority 2022, published 2025).
Like-named read-outs stand apart in the source and are kept apart here.

What was measured:
Format in all cases: cell-based
[1] = test system: A. baumannii; assay: MIC broth microdilution (CLSI); settings: Acinetobacter baumannii
Protocol: (§1) Minimum inhibitory concentrations for representative example compounds herein were determined by a broth microdilution method in accordance with the Clinical and Laboratory Standards Institute (CLSI) guidelines. In brief, organism suspensions were adjusted to a 0.5 McFarland standard to yield a final inoculum between 3×10^5 and 7×10^5 colony-forming units (CFU)/mL. The inoculum was prepared by suspension of a colony from an agar plate that was prepared the previous day. Compound dilutions and inoculum were prepared in sterile, cation adjusted Mueller-Hinton Broth (Beckton Dickinson).
(§2) Bacteria were suspended in sterile saline and added to each assay plate to obtain a final concentration of 5×10^5 CFU/mL. An inoculum volume of 100 μL was added to wells containing 100 μL of broth with 2-fold serial dilutions of the test compound. All inoculated microdilution trays were incubated in ambient air at 35° C. for 18-24 hours. Following incubation, the lowest concentration of the compound that prevented visible growth (OD 600 nm<0.05) is recorded was the MIC. […] Performance of the assay was monitored by the use of laboratory quality-control strains and a standard compound with a defined MIC spectrum (neomycin), in accordance with CLSI guidelines.

[2] = test system: E. coli; assay: MIC broth microdilution (CLSI); settings: Escherichia coli
Protocol: as §1, §2

[3] = test system: P. aeruginosa; assay: MIC broth microdilution (CLSI); settings: Pseudomonas aeruginosa
Protocol: as §1, §2

[4] = test system: A. baumannii-calcoaceticus; assay: Antibacterial surveillance of clinical isolates (MIC50/90); settings: 100 isolates
Protocol: as §1, §2
(§3) Several compounds of the disclosure (Compound 1, 2, and 3) were further evaluated against several hundred bacterial isolates (isolated in the United States and Europe, 1:1) selected from the SENTRY Antimicrobial Surveillance Program (JMI Laboratories, North Liberty, Iowa). The set of clinical isolates included 300 randomly selected Enterobacterales, 103 randomly selected P. aeruginosa, 100 randomly selected A. baumannii-calcoaceticus, 20 randomly selected Methicillin-sensitive S. aureus (MSSA), and 30 randomly selected Methicillin-resistant S. aureus (MRSA). In addition, 101 Enterobacterales and 50 P. aeruginosa isolates with genetically defined mechanisms of aminoglycoside resistance were included. The MIC values at which ≥50% (MIC50) and ≥90% (MIC90) of isolates within a given set are inhibited were determined for each compound against each set of organisms.

[5] = test system: Methicillin-sensitive S. aureus (MSSA); assay: as above; settings: 20 isolates
Protocol: as §1, §2, §3

[6] = test system: P. aeruginosa; assay: as above; settings: 103 isolates
Protocol: as §1, §2, §3

[7] = test system: Methicillin-resistant S. aureus (MRSA); assay: as above; settings: 30 isolates
Protocol: as §1, §2, §3

[8] = test system: AG-resistant P. aeruginosa; assay: as above; settings: 50 isolates with defined aminoglycoside resistance
Protocol: as §1, §2, §3

[9] = test system: AG-resistant Enterobacterales; assay: as above; settings: 101 isolates with defined aminoglycoside resistance
Protocol: as §1, §2, §3

[10] = read-out: Activity (MIC), strain NABA0007, ΔadeJK efflux
[11] = strain NABA0006, WT parent, read-out: Activity (MIC)
[12] = strain NABA0020, AME negative strain, read-out: Activity (MIC)
[13] = read-out: Activity (MIC), strain NECO0003, ΔtolC
[14] = read-out: Activity (MIC), strain NECO0245, ArmA
[15] = strain NECO0001, WT QC, read-out: Activity (MIC)
[16] = strain NECO0002, WT, read-out: Activity (MIC)
[17] = strain NECO0243, empty vector, read-out: Activity (MIC)
[18] = strain NECO0244, AAC(6')-Ib, read-out: Activity (MIC)
[19] = strain NECO0289, APH(3')-Ia, read-out: Activity (MIC)
[20] = strain NECO0302, AAC(3)-IIa, read-out: Activity (MIC)
[21] = strain NECO0350, AAC(2')-I, read-out: Activity (MIC)
[22] = strain NECO0359, ANT(4')-Ia, read-out: Activity (MIC)
[23] = read-out: Activity (MIC), strain NPAE0006, Efflux KO, Aph(3')-IIb
[24] = read-out: Activity (MIC), strain NPAE0010, MexXY over-expressed, Aph(3')-IIb
[25] = strain NPAE0001, WT Aph(3')-IIb, QC, read-out: Activity (MIC)
[26] = strain NPAE0002, WT Aph(3')-IIb, read-out: Activity (MIC)
[27] = strain NPAE0359, aph(3')-IIb KO (tetR), read-out: Activity (MIC)

Molecule | MIC [1, 10] [µg/mL] | MIC [1, 11] [µg/mL] | MIC [1, 12] [µg/mL] | MIC [2, 13] [µg/mL] | MIC [2, 14] [µg/mL] | MIC [2, 15] [µg/mL] | MIC [2, 16] [µg/mL] | MIC [2, 17] [µg/mL] | MIC [2, 18] [µg/mL] | MIC [2, 19] [µg/mL] | MIC [2, 20] [µg/mL] | MIC [2, 21] [µg/mL] | MIC [2, 22] [µg/mL] | MIC [3, 23] [µg/mL] | MIC [3, 24] [µg/mL] | MIC [3, 25] [µg/mL] | MIC [3, 26] [µg/mL] | MIC [3, 27] [µg/mL] | further results
C[C@@H](N)[C@@H]1CC[C@@H](N)[C@@H](O[C@@H]2[C@@H](N)[C@H](O)[C@@H](NC(=O)[C@@H](O)[C@H](F)CN)[C@H](O)[C@H]2O[C@@H]2O[C@H](CO)[C@@H](O[C@H]3O[C@@H](CN)[C@@H](O)[C@H](O)[C@H]3N)[C@H]2O)O1 [Compound 4, (2R,3R)-4-amino-N-((1R,2S,3S,4R,5R,6S)-3-amino-4-(((2R,3R,6S)-3-amino-6-((R)-1-aminoethyl)tetrahydro-2H-pyran-2-yl)oxy)-5-(((2S,3R,4S,5R)-4-(((2R,3R,4R,5S,6S)-3-amino-6-(aminomethyl)-4,5-dihydroxytetrahydro-2H-pyran-2-yl)oxy)-3-hydroxy-5-(hydroxymethyl)tetrahydrofuran-2-yl)oxy)-2,6-dihydroxycyclohexyl)-3-fluoro-2-hydroxybutanamide] | < 16 | < 16 | < 16 | < 16 | < 16 | < 16 | < 16 | < 16 | < 16 | < 16 | < 16 | < 16 | < 16 | < 16 | < 16 | < 16 | < 16 | < 16 | 
C[C@@H](N)[C@@H]1CC[C@@H](N)[C@@H](O[C@@H]2[C@@H](N)[C@H](O)[C@@H](NC(=O)[C@@H](O)CCN)[C@H](O)[C@H]2O[C@@H]2O[C@H](CO)[C@@H](O[C@H]3O[C@@H](CN)[C@@H](O)[C@H](O)[C@H]3N)[C@H]2O)O1 [Compound 5, (S)-4-Amino-N-((1R,2S,3S,4R,5R,6S)-3-Amino-4-(((2R,3R,6S)-3-Amino-6-((R)-1-Aminoethyl)Tetrahydro-2H-Pyran-2-Yl)Oxy)-5-(((2S,3R,4S,5R)-4-(((2R,3R,4R,5S,6S)-3-Amino-6-(Aminomethyl)-4,5-Dihydroxytetrahydro-2H-Pyran-2-Yl)Oxy)-3-Hydroxy-5-(Hydroxymethyl)Tetrahydrofuran-2-Yl)Oxy)-2,6-Dihydroxycyclohexyl)-2-Hydroxybutanamide] | < 16 | < 16 | < 16 | < 16 | < 16 | < 16 | < 16 | < 16 | < 16 | < 16 | < 16 | < 16 | < 16 | < 16 | < 16 | < 16 | < 16 | < 16 | 
CN[C@@H](C)[C@@H]1CC[C@@H](N)[C@@H](O[C@@H]2[C@@H](N)[C@H](O)[C@@H](NC(=O)[C@@H](O)[C@H](F)CN)[C@H](O)[C@H]2O[C@@H]2O[C@H](CO)[C@@H](O[C@H]3O[C@@H](CN)[C@@H](O)[C@H](O)[C@H]3N)[C@H]2O)O1 [Compound 7, (2R,3R)-4-amino-N-((1R,2S,3S,4R,5R,6S)-3-amino-4-(((2R,3R,6S)-3-amino-6-((S)-1-(methylamino)ethyl)tetrahydro-2H-pyran-2-yl)oxy)-5-(((2S,3R,4S,5R)-4-(((2R,3R,4R,5S,6S)-3-amino-6-(aminomethyl)-4,5-dihydroxytetrahydro-2H-pyran-2-yl)oxy)-3-hydroxy-5-(hydroxymethyl)tetrahydrofuran-2-yl)oxy)-2,6-dihydroxycyclohexyl)-3-fluoro-2-hydroxybutanamide] | < 16 | < 16 | < 16 | < 16 | < 16 | < 16 | < 16 | < 16 | < 16 | > 16 | < 16 | < 16 | < 16 | < 16 | > 16 | < 16 | < 16 | < 16 | 
C[C@H](N)[C@@H]1CC[C@@H](N)[C@@H](O[C@@H]2[C@@H](N)[C@H](O)[C@@H](N)[C@H](O)[C@H]2O[C@@H]2O[C@H](CO)[C@@H](O[C@H]3O[C@@H](CN)[C@@H](O)[C@H](O)[C@H]3N)[C@H]2O)O1 [Compound 8, (2S,3S,4R,5R,6R)-5-amino-2-(aminomethyl)-6-(((2R,3S,4R,5S)-5-(((1R,2R,3S,4R,5R,6S)-3,5-diamino-2-(((2R,3R,6S)-3-amino-6-((S)-1-aminoethyl)tetrahydro-2H-pyran-2-yl)oxy)-4,6-dihydroxycyclohexyl)oxy)-4-hydroxy-2-(hydroxymethyl)tetrahydrofuran-3-yl)oxy)tetrahydro-2H-pyran-3,4-diol] | < 16 | < 16 | > 16 | < 16 | < 16 | < 16 | < 16 | < 16 | < 16 | > 16 | < 16 | < 16 | < 16 | < 16 | < 16 | < 16 | < 16 | < 16 | 
gentamicin [reference compound] |  |  |  |  |  |  |  |  |  |  |  |  |  |  |  |  |  |  | MIC50 [4]: + (+ = MIC50 or MIC90 ≤ 16 μg/mL); MIC90 [4]: − (− = MIC50 or MIC90 > 16 μg/mL); MIC50 [5]: +/+ (+ = MIC50 or MIC90 ≤ 16 μg/mL); MIC90 [5]: +/+ (+ = MIC50 or MIC90 ≤ 16 μg/mL); MIC50 [6]: +/+ (+ = MIC50 or MIC90 ≤ 16 μg/mL); MIC90 [6]: +/+ (+ = MIC50 or MIC90 ≤ 16 μg/mL); MIC50 [7]: +/+ (+ = MIC50 or MIC90 ≤ 16 μg/mL); MIC90 [7]: +/+ (+ = MIC50 or MIC90 ≤ 16 μg/mL); MIC50 [8]: + (+ = MIC50 or MIC90 ≤ 16 μg/mL); MIC90 [8]: − (− = MIC50 or MIC90 > 16 μg/mL); MIC50 [9]: −/− (− = MIC50 or MIC90 > 16 μg/mL); MIC90 [9]: −/− (− = MIC50 or MIC90 > 16 μg/mL)
